Test results taken from the NIST ThermoML archive (doi:10.1016/j.jct.2005.03.012).

Test: excess molar enthalpy (molar enthalpy of mixing); xn = mol fraction of the nth substance listed
Conditions: Liquid

CO [methanol] + O
Conditions	excess molar enthalpy [kJ/mol]
323.15 K, 2000 kPa, x1 = 0.2	-0.642
323.15 K, 2000 kPa, x1 = 0.4	-0.703
323.15 K, 2000 kPa, x1 = 0.6	-0.594
323.15 K, 2000 kPa, x1 = 0.8	-0.409
323.15 K, 5000 kPa, x1 = 0.1	-0.445
323.15 K, 5000 kPa, x1 = 0.2	-0.646
323.15 K, 5000 kPa, x1 = 0.3	-0.711
323.15 K, 5000 kPa, x1 = 0.4	-0.708
323.15 K, 5000 kPa, x1 = 0.5	-0.659
323.15 K, 5000 kPa, x1 = 0.6	-0.596
323.15 K, 5000 kPa, x1 = 0.7	-0.509
323.15 K, 5000 kPa, x1 = 0.8	-0.413
323.15 K, 5000 kPa, x1 = 0.9	-0.23
323.15 K, 10000 kPa, x1 = 0.2	-0.648
323.15 K, 10000 kPa, x1 = 0.4	-0.718
323.15 K, 10000 kPa, x1 = 0.6	-0.6
323.15 K, 10000 kPa, x1 = 0.8	-0.417
325.16 K, 5000 kPa, x1 = 0.1	-0.43
325.16 K, 5000 kPa, x1 = 0.2	-0.627
325.16 K, 5000 kPa, x1 = 0.3	-0.689
325.16 K, 5000 kPa, x1 = 0.4	-0.688
325.16 K, 5000 kPa, x1 = 0.5	-0.641
325.16 K, 5000 kPa, x1 = 0.6	-0.58
325.16 K, 5000 kPa, x1 = 0.7	-0.499
325.16 K, 5000 kPa, x1 = 0.8	-0.401
325.16 K, 5000 kPa, x1 = 0.9	-0.229
325.16 K, 10000 kPa, x1 = 0.2	-0.629
325.16 K, 10000 kPa, x1 = 0.4	-0.696
325.16 K, 10000 kPa, x1 = 0.6	-0.583
325.16 K, 10000 kPa, x1 = 0.8	-0.403
325.17 K, 2000 kPa, x1 = 0.2	-0.622
325.17 K, 2000 kPa, x1 = 0.4	-0.687
325.17 K, 2000 kPa, x1 = 0.6	-0.577
325.17 K, 2000 kPa, x1 = 0.8	-0.398
325.45 K, 5000 kPa, x1 = 0.9	-0.225
327.47 K, 5000 kPa, x1 = 0.8	-0.395
327.48 K, 5000 kPa, x1 = 0.9	-0.224
327.62 K, 2000 kPa, x1 = 0.8	-0.391
327.85 K, 10000 kPa, x1 = 0.8	-0.397
328.61 K, 5000 kPa, x1 = 0.1	-0.413
328.71 K, 5000 kPa, x1 = 0.7	-0.477
329.03 K, 2000 kPa, x1 = 0.8	-0.38
329.7 K, 10000 kPa, x1 = 0.6	-0.551
329.76 K, 5000 kPa, x1 = 0.6	-0.549
329.82 K, 2000 kPa, x1 = 0.6	-0.548
329.82 K, 10000 kPa, x1 = 0.8	-0.385
330.07 K, 5000 kPa, x1 = 0.8	-0.383
330.39 K, 5000 kPa, x1 = 0.1	-0.4
330.5 K, 5000 kPa, x1 = 0.5	-0.601
330.64 K, 2000 kPa, x1 = 0.2	-0.58
330.67 K, 10000 kPa, x1 = 0.2	-0.585
330.69 K, 5000 kPa, x1 = 0.2	-0.584
330.7 K, 5000 kPa, x1 = 0.7	-0.467
331.07 K, 2000 kPa, x1 = 0.4	-0.632
331.07 K, 5000 kPa, x1 = 0.4	-0.638
331.13 K, 10000 kPa, x1 = 0.4	-0.642
331.23 K, 5000 kPa, x1 = 0.3	-0.638
331.57 K, 10000 kPa, x1 = 0.6	-0.536
331.61 K, 5000 kPa, x1 = 0.6	-0.535
331.66 K, 2000 kPa, x1 = 0.6	-0.533
332.3 K, 5000 kPa, x1 = 0.5	-0.584
332.4 K, 10000 kPa, x1 = 0.2	-0.563
332.42 K, 2000 kPa, x1 = 0.2	-0.555
332.5 K, 5000 kPa, x1 = 0.2	-0.569
332.88 K, 2000 kPa, x1 = 0.4	-0.618
332.9 K, 5000 kPa, x1 = 0.4	-0.62
332.91 K, 10000 kPa, x1 = 0.4	-0.624
333.05 K, 5000 kPa, x1 = 0.3	-0.621
348.15 K, 5000 kPa, x1 = 0.1	-0.295
348.15 K, 5000 kPa, x1 = 0.2	-0.425
348.15 K, 5000 kPa, x1 = 0.3	-0.467
348.15 K, 5000 kPa, x1 = 0.4	-0.465
348.15 K, 5000 kPa, x1 = 0.5	-0.446
348.15 K, 5000 kPa, x1 = 0.6	-0.408
348.15 K, 5000 kPa, x1 = 0.7	-0.364
348.15 K, 5000 kPa, x1 = 0.8	-0.291
348.15 K, 5000 kPa, x1 = 0.9	-0.177
349.68 K, 5000 kPa, x1 = 0.9	-0.172
350.05 K, 5000 kPa, x1 = 0.1	-0.282
350.05 K, 5000 kPa, x1 = 0.2	-0.409
350.05 K, 5000 kPa, x1 = 0.3	-0.443
350.05 K, 5000 kPa, x1 = 0.4	-0.445
350.05 K, 5000 kPa, x1 = 0.5	-0.428
350.05 K, 5000 kPa, x1 = 0.6	-0.392
350.05 K, 5000 kPa, x1 = 0.7	-0.349
350.05 K, 5000 kPa, x1 = 0.8	-0.279
350.05 K, 5000 kPa, x1 = 0.9	-0.171
351.04 K, 5000 kPa, x1 = 0.8	-0.262
351.25 K, 5000 kPa, x1 = 0.9	-0.167
351.64 K, 5000 kPa, x1 = 0.1	-0.276
351.93 K, 5000 kPa, x1 = 0.7	-0.333
352.43 K, 5000 kPa, x1 = 0.6	-0.37
352.79 K, 5000 kPa, x1 = 0.8	-0.265
352.88 K, 5000 kPa, x1 = 0.5	-0.402
353.01 K, 5000 kPa, x1 = 0.2	-0.386
353.16 K, 5000 kPa, x1 = 0.4	-0.416
353.32 K, 5000 kPa, x1 = 0.3	-0.419
353.54 K, 5000 kPa, x1 = 0.1	-0.261
353.78 K, 5000 kPa, x1 = 0.7	-0.323
354.25 K, 5000 kPa, x1 = 0.6	-0.357
354.69 K, 5000 kPa, x1 = 0.5	-0.386
354.82 K, 5000 kPa, x1 = 0.2	-0.369
354.97 K, 5000 kPa, x1 = 0.4	-0.397
